Data on 30 compounds can be found in patent US20240101549A1, “N-(2-(4-CYANOTHIAZOLIDIN-3-YL)-2-OXOETHYL)-QUINOLINE-4-CARBOXAMIDES” (AstraZeneca AB, priority 2020, published 2024).

For one series, the target named is FAP (Macaca fascicularis, UniProt A0A2K5VGH4). The series can be described thus: FAP plasma inhibition assay, cynomolgus plasma. Type of series: biochemical. The settings on record: cynomolgus plasma diluted 1:40, 75 μM Ala-Pro-AMC; n = 1; read-out: FAP Cyno Plasma IC50. How it is done: D. FAP Plasma Inhibition Assay This assay was adapted from the method described in Example 237 for detection of FAP target engagement enzyme activity in plasma. […] Compounds were tested using 10 CR, 3 fold dilution series from 500 nM FAC. Two replicates for each assay point were run on the same plate. A fluorescence blank read was taken before substrate addition. […] Plates were incubated for 40 min at rt in the dark. […] IC50 values were determined by plotting % inhibition versus log compound concentration.
Sequence of FAP (A0A2K5VGH4 entry or part of it): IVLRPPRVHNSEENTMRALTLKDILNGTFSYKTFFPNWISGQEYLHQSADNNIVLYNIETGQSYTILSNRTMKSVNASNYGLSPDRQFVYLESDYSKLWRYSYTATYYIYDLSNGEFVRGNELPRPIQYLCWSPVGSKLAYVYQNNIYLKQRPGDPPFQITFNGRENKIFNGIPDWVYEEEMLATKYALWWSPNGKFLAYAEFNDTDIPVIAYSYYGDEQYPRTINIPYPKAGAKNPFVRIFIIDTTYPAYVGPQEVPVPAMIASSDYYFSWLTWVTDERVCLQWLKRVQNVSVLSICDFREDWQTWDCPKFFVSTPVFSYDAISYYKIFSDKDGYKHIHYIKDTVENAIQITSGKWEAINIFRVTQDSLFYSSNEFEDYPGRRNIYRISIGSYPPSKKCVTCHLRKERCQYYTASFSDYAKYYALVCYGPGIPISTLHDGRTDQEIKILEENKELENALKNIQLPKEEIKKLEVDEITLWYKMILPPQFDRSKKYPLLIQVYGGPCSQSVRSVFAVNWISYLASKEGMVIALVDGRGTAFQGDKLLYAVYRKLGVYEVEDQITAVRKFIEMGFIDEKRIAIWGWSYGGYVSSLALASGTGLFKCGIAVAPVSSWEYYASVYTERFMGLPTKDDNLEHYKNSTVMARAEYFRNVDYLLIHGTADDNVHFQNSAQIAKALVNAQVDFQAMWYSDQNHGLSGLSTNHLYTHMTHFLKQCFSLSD

The next series is described as follows: Caco-2 cell permeability. The following applies: human, Caco-2, AB intrinsic; n = 1 or average of n = 2-4; read-out: Caco2 AB Intrinsic Papp. Type of series: in vitro ADME. On the technique in general: Caco-2 cells form a polarised layer with tight junctions and transporters.

Procedure for Caco-2 cell permeability: Caco-2 cell permeability was measured as described in Mol Pharm 2017, 14, 1601.

With `N#C[C@@H]1CSCN1C(=O)CNC(=O)c1c(F)cnc2ccc(N3CCOCC3)cc12` [Example 2, (R)—N-(2-(4-Cyanothiazolidin-3-yl)-2-oxoethyl)-3-fluoro-6-morpholino-quinoline-4-carboxamide], the IC50 (in general, the concentration needed to halve the response being measured) at FAP worked out at 9.2 nM. The Papp A→B in the series “Caco-2 cell permeability” is 23 ×10⁻⁶ cm/s.
In the case of `COC1CCN(c2ccc3nccc(C(=O)NCC(=O)N4CSC[C@H]4C#N)c3c2)CC1` [Example 8, (R)—N-(2-(4-Cyanothiazolidin-3-yl)-2-oxoethyl)-6-(4-methoxypiperidin-1-yl)quinoline-4-carboxamide], the IC50 on FAP was 0.2 nM.
As for `CC1(C)OCCN(c2ccc3nccc(C(=O)NCC(=O)N4CSC[C@H]4C#N)c3c2)C1=O` [Example 16, (R)—N-(2-(4-Cyanothiazolidin-3-yl)-2-oxoethyl)-6-(2,2-dimethyl-3-oxomorpholino)quinoline-4-carboxamide], at FAP, the IC50 came to 0.2 nM.
Still for that read-out and setting: the figure for `CC1(F)CN(c2ccc3nccc(C(=O)NCC(=O)N4CSC[C@H]4C#N)c3c2)C1` [Example 24, (R)—N-(2-(4-Cyanothiazolidin-3-yl)-2-oxoethyl)-6-(3-fluoro-3-methyl-azetidin-1-yl)quinoline-4-carboxamide] is 0.3 nM; for `CC1(CF)CN(c2ccc3nccc(C(=O)NCC(=O)N4CSC[C@H]4C#N)c3c2)C1` [Example 27, (R)—N-(2-(4-Cyanothiazolidin-3-yl)-2-oxoethyl)-6-(3-(fluoromethyl)-3-methylazetidin-1-yl)quinoline-4-carboxamide] it is 0.3 nM.
Consider `N#C[C@@H]1CSCN1C(=O)CNC(=O)c1ccnc2ccc(N3CC(C(F)F)C3)cc12` [Example 28, (R)—N-(2-(4-Cyanothiazolidin-3-yl)-2-oxoethyl)-6-(3-(difluoromethyl)-azetidin-1-yl)quinoline-4-carboxamide], for which the IC50 at FAP was 0.3 nM. In the series “Caco-2 cell permeability”, the Papp A→B was found to be 21 ×10⁻⁶ cm/s.
With `COCC1(C)CN(c2ccc3nccc(C(=O)NCC(=O)N4CSC[C@H]4C#N)c3c2)C1` [Example 29, (R)—N-(2-(4-Cyanothiazolidin-3-yl)-2-oxoethyl)-6-(3-(methoxymethyl)-3-methylazetidin-1-yl)quinoline-4-carboxamide], the Papp A→B in the series “Caco-2 cell permeability” was determined as 26 ×10⁻⁶ cm/s.
Same read-out and setting: then `CO[C@@H]1CN(c2ccc3nccc(C(=O)NCC(=O)N4CSC[C@H]4C#N)c3c2)[C@H]1C` [Example 30, N-(2-((R)-4-Cyanothiazolidin-3-yl)-2-oxoethyl)-6-((2S,3R)-3-methoxy-2-methylazetidin-1-yl)quinoline-4-carboxamide], with 15 ×10⁻⁶ cm/s.
Take `N#C[C@@H]1CSCN1C(=O)CNC(=O)c1ccnc2ccc(N3C[C@@H](F)[C@@H](F)C3)cc12` [Example 50, N-(2-((R)-4-Cyanothiazolidin-3-yl)-2-oxoethyl)-6-((3R,4S)-3,4-difluoropyrrolidin-1-yl)quinoline-4-carboxamide]: the IC50 at FAP turned out to be 0.3 nM.
The same measure, in the same setting: the figure for `C[C@@H]1CN(c2ccc3nccc(C(=O)NCC(=O)N4CSC[C@H]4C#N)c3c2)C[C@H](C)O1` [Example 68, N-(2-((R)-4-Cyanothiazolidin-3-yl)-2-oxoethyl)-6-((2R,6S)-2,6-dimethylmorpholino)-quinoline-4-carboxamide] is 0.3 nM.
On the same count and under the same terms, the figure for `N#C[C@@H]1CSCN1C(=O)CNC(=O)c1ccnc2ccc(N3CCO[C@@H](CF)C3)cc12` [Example 69, N-(2-((R)-4-Cyanothiazolidin-3-yl)-2-oxoethyl)-6-((R)-2-(fluoromethyl)morpholino)-quinoline-4-carboxamide] is 0.2 nM.
As to `C[C@@H]1CN(c2ccc3nccc(C(=O)NCC(=O)N4CSC[C@H]4C#N)c3c2)C[C@@H](C)O1` [Example 70, N-(2-((R)-4-Cyanothiazolidin-3-yl)-2-oxoethyl)-6-((2R,6R)-2,6-dimethylmorpholino)-quinoline-4-carboxamide], the IC50 on FAP was 0.2 nM.
Take `N#C[C@@H]1CSCN1C(=O)CNC(=O)c1ccnc2ccc(N3CCO[C@H](CF)C3)cc12` [Example 71, N-(2-((R)-4-Cyanothiazolidin-3-yl)-2-oxoethyl)-6-((S)-2-(fluoromethyl)morpholino)-quinoline-4-carboxamide]: on FAP, the IC50 turned out to be 0.2 nM.
Still for that read-out and setting: then `C[C@@H]1CN(c2ccc3nccc(C(=O)NCC(=O)N4CSC[C@H]4C#N)c3c2)CCO1` [Example 72, N-(2-((R)-4-Cyanothiazolidin-3-yl)-2-oxoethyl)-6-((R)-2-methylmorpholino)-quinoline-4-carboxamide], with 0.2 nM; and `N#C[C@@H]1CSCN1C(=O)CNC(=O)c1ccnc2ccc(N3CCO[C@H](C(F)(F)F)C3)cc12` [Example 74, N-(2-((R)-4-Cyanothiazolidin-3-yl)-2-oxoethyl)-6-((S)-2-(trifluoromethyl)-morpholino)quinoline-4-carboxamide], with 0.2 nM.
Consider `C[C@@H]1OCCN(c2ccc3nccc(C(=O)NCC(=O)N4CSC[C@H]4C#N)c3c2)[C@H]1C` [Example 82, N-(2-((R)-4-Cyanothiazolidin-3-yl)-2-oxoethyl)-6-((2S,3S)-2,3-dimethyl-morpholino)quinoline-4-carboxamide], for which, at FAP, the 50% inhibitory concentration (IC50) was determined as 0.3 nM.
As for `CC1(C)CN(c2ccc3nccc(C(=O)NCC(=O)N4CSC[C@H]4C#N)c3c2)CCO1` [Example 88, (R)—N-(2-(4-Cyanothiazolidin-3-yl)-2-oxoethyl)-6-(2,2-dimethyl-morpholino)quinoline-4-carboxamide], the IC50 on FAP is 0.2 nM. For the same compound, the Papp A→B in the series “Caco-2 cell permeability” is 13 ×10⁻⁶ cm/s.
Consider `N#C[C@@H]1CSCN1C(=O)CNC(=O)c1ccnc2ccc(N3C4CCC3COC4)cc12` [Example 98, 6-(3-Oxa-8-azabicyclo[3.2.1]octan-8-yl)-N-(2-((R)-4-cyanothiazolidin-3-yl)-2-oxoethyl)quinoline-4-carboxamide], for which, on FAP, the IC50 was determined as 0.3 nM. Also, the Papp A→B in “Caco-2 cell permeability” is 8.6 ×10⁻⁶ cm/s.
Regarding `C[C@H]1COCCN1c1ccc2nccc(C(=O)NCC(=O)N3CSC[C@H]3C#N)c2c1` [Example 102, N-(2-((R)-4-Cyanothiazolidin-3-yl)-2-oxoethyl)-6-((S)-3-methyl-morpholino)quinoline-4-carboxamide], the IC50 at FAP was 0.2 nM.
Regarding `CC1(C)CCN(c2ccc3nccc(C(=O)NCC(=O)N4CSC[C@H]4C#N)c3c2)C(=O)O1` [Example 112, (R)—N-(2-(4-Cyanothiazolidin-3-yl)-2-oxoethyl)-6-(6,6-dimethyl-2-oxo-1,3-oxazinan-3-yl)quinoline-4-carboxamide], the IC50 at FAP is 0.5 nM.
As for `CC1(C)Cc2c(-c3ccc4nccc(C(=O)NCC(=O)N5CSC[C@H]5C#N)c4c3)cnn2C1` [Example 123, (R)—N-(2-(4-Cyanothiazolidin-3-yl)-2-oxoethyl)-6-(5,5-dimethyl-5,6-dihydro-4H-pyrrolo[1,2-b]pyrazol-3-yl)quinoline-4-carboxamide], the Papp A→B in “Caco-2 cell permeability” was found to be 14 ×10⁻⁶ cm/s.
In the case of `CC(F)(F)C1CN(c2ccc3nccc(C(=O)NCC(=O)N4CSC[C@H]4C#N)c3c2)C1` [Example 147, (R)—N-(2-(4-Cyanothiazolidin-3-yl)-2-oxoethyl)-6-(3-(1,1-difluoroethyl)-azetidin-1-yl)quinoline-4-carboxamide], on FAP, the IC50 came to 0.1 nM.
Still for that read-out and setting: the figure for `COC1(C)CN(c2ccc3nccc(C(=O)NCC(=O)N4CSC[C@H]4C#N)c3c2)C1` [Example 151, (R)—N-(2-(4-Cyanothiazolidin-3-yl)-2-oxoethyl)-6-(3-methoxy-3-methylazetidin-1-yl)quinoline-4-carboxamide] is 0.3 nM; for `N#C[C@@H]1CSCN1C(=O)CNC(=O)c1ccnc2ccc(N3CC(F)(CF)C3)cc12` [Example 157, (R)—N-(2-(4-Cyanothiazolidin-3-yl)-2-oxoethyl)-6-(3-fluoro-3-(fluoromethyl)azetidin-1-yl)quinoline-4-carboxamide] it is 0.4 nM; for `N#C[C@@H]1CSCN1C(=O)CNC(=O)c1ccnc2ccc(N3CC4(C3)OCCO4)cc12` [Example 163, (R)—N-(2-(4-Cyanothiazolidin-3-yl)-2-oxoethyl)-6-(5,8-dioxa-2-azaspiro[3.4]octan-2-yl)quinoline-4-carboxamide] it is 0.2 nM.
Consider `CC1(O)CN(c2ccc3nccc(C(=O)NCC(=O)N4CSC[C@H]4C#N)c3c2)C1` [Example 165, (R)—N-(2-(4-Cyanothiazolidin-3-yl)-2-oxoethyl)-6-(3-hydroxy-3-methyl-azetidin-1-yl)quinoline-4-carboxamide], for which the Papp A→B in the series “Caco-2 cell permeability” was 0.51 ×10⁻⁶ cm/s.
As for `CC(=O)NCC1(C)CN(c2ccc3nccc(C(=O)NCC(=O)N4CSC[C@H]4C#N)c3c2)C1` [Example 181, (R)-6-(3-(Acetamidomethyl)-3-methylazetidin-1-yl)-N-(2-(4-cyano-thiazolidin-3-yl)-2-oxoethyl)quinoline-4-carboxamide], the IC50 on FAP amounted to 0.5 nM.
Consider `CC1(CS(C)(=O)=O)CN(c2ccc3nccc(C(=O)NCC(=O)N4CSC[C@H]4C#N)c3c2)C1` [Example 188, (R)—N-(2-(4-Cyanothiazolidin-3-yl)-2-oxoethyl)-6-(3-methyl-3-((methylsulfonyl)methyl)azetidin-1-yl)quinoline-4-carboxamide], for which the Papp A→B in “Caco-2 cell permeability” amounted to 0.28 ×10⁻⁶ cm/s.
Turning to `CN1CCC(F)(c2ccc3nccc(C(=O)NCC(=O)N4CSC[C@H]4C#N)c3c2)CC1` [Example 195, (R)—N-(2-(4-Cyanothiazolidin-3-yl)-2-oxoethyl)-6-(4-fluoro-1-methyl-piperidin-4-yl)quinoline-4-carboxamide], the IC50 on FAP amounted to 1 nM.
In the case of `N#C[C@@H]1CSCN1C(=O)CNC(=O)c1ccnc2ccc(N3CCC(F)CC3)cc12` [Example 205, (R)—N-(2-(4-Cyanothiazolidin-3-yl)-2-oxoethyl)-6-(4-fluoropiperidin-1-yl)quinoline-4-carboxamide], the IC50 on FAP worked out at 0.3 nM.
